Results taken from PubChem BioAssay AID1996.
Converted amounts (≈) assume the structure as drawn.

Conditions: buffer; pH 7.4; 200.0 µM

| SMILES | solubility kinetic |
| --- | --- |
| O=C1CCC(C(=O)OCc2nnc(-c3ccccc3)o2)=NN1 | > 45 µg/mL |
| CCC(=O)N(C(=O)CC)N1CCN(c2ccncc2S(=O)(=O)N2CCCCC2)CC1 | > 65.6 µg/mL |
| O=C1N=C(N2CCc3ccccc3C2)S/C1=C\c1ccc(O)cc1 | 3.4 µg/mL (≈ 10.1 µM) |
| CO/N=C(\N)c1nonc1N | 20.1 µg/mL (≈ 128 µM) |
| O=c1oc2ccccc2c(Nc2ccccc2)c1CN1CCCCC1 | 44.1 µg/mL (≈ 132 µM) |
| O=C(NCCN1CCCCC1)Nc1ccc(Br)cc1 | 48.4 µg/mL (≈ 148 µM) |
| Nc1ncccc1OCc1ccc(Cl)c(Cl)c1 | 29.7 µg/mL (≈ 110 µM) |
| CC(C)Cc1nc2ccccc2[nH]1 | > 26.1 µg/mL |
| O=C(CCc1ccccc1)NCc1ccc2c(c1)OCO2 | > 42.5 µg/mL |
| CCN(CC)CCn1c(-c2ccc(C)cc2)nc(=S)c2c1CC(C)(C)OC2 | > 57.8 µg/mL |
| O=C(NNC(=O)c1ccncc1)Nc1cccc([N+](=O)[O-])c1 | > 45.2 µg/mL |
| O=c1[nH]c(SCCOc2ccccc2F)nc2ccccc12 | 0.9 µg/mL (≈ 2.84 µM) |
| Cc1ccc(SCCSc2ncccn2)cc1 | 1.7 µg/mL (≈ 6.48 µM) |
| CC(NC(=O)C1CCN(C(=O)c2ccc(F)cc2)CC1)c1ccc(S(N)(=O)=O)cc1 (stereo not given) | > 65 µg/mL |
| COC(=O)C1=C(C)NC(C)=C(C(=O)OC)C1c1ccc(C)o1 | 13 µg/mL (≈ 42.6 µM) |
| CC1CCN(CC(=O)Nc2ccc(Cl)cc2[N+](=O)[O-])CC1 | 0.9 µg/mL (≈ 2.89 µM) |
| Cc1ccccc1NC(=S)NC(=O)/C=C/c1ccco1 | 38.3 µg/mL (≈ 134 µM) |
| Cc1nn(C)cc1C(=O)Nc1ccc2c(c1)OCCO2 | > 41 µg/mL |
| O=C(NCc1ccco1)c1cccc(C(F)(F)F)c1 | > 40.4 µg/mL |
| COc1cc([N+](=O)[O-])ccc1NC(=O)NCc1cccnc1 | 17 µg/mL (≈ 56.2 µM) |
| CCc1ccc(N2CC(C(=O)OCC(=O)NC3CC3)CC2=O)cc1 (stereo not given) | > 49.6 µg/mL |
| CSc1ccccc1C(=O)Nc1cccc([N+](=O)[O-])c1 | 28.2 µg/mL (≈ 97.8 µM) |
| Cl.c1ccc(CNCc2ccco2)cc1 | 33.5 µg/mL |
| CN(CCC(=O)Nc1ccc(Cl)cc1)Cc1ccccc1.Cl | > 50.9 µg/mL |

| SMILES | solubility kinetic |
| --- | --- |
| CCOC(=O)/C(C#N)=C/N1CCOCC1 | > 31.5 µg/mL |
| CCOC(=O)C1CCN(S(=O)(=O)c2ccc(NC(C)=O)c(Cl)c2)CC1 | 7.3 µg/mL (≈ 18.8 µM) |
| Cc1ccc(C(=O)NCC(=O)N(C)Cc2cccc(F)c2)s1 | > 48.1 µg/mL |
| Cc1ccccc1N=CC1=C(O)c2ccccc2C1=O | < 0.6 µg/mL |
| Cc1ccc(S(=O)(=O)NC(=O)Nc2cccc(C)n2)cc1 | > 45.8 µg/mL |
| Cc1ccc(C(=O)Nc2ccccc2C(=O)NCc2ccco2)cc1 | 4.6 µg/mL (≈ 13.8 µM) |
| CC1CCCC(C)N1C(=O)c1cc(-c2ccco2)on1 (stereo not given) | > 41.1 µg/mL |
| Cc1ccc2oc(=O)cc(CN3CCN(Cc4ccccc4)CC3)c2c1 | 19.5 µg/mL (≈ 56 µM) |
| Cc1ccc(OCc2nc(C#N)c(N3CCCCC3)o2)cc1 | 4.9 µg/mL (≈ 16.5 µM) |
| Br.CC1CN2C(c3ccc(Cl)cc3)=CSC2=N1 (stereo not given) | > 49.7 µg/mL |
| CC(=O)C1=C(O)C(=O)N(c2ccc(O)cc2)C1c1ccc(Cl)cc1 (stereo not given) | 42.6 µg/mL (≈ 124 µM) |
| CCC1Sc2ccccc2N(CC(=O)NC2CC2)C1=O (stereo not given) | 39.6 µg/mL (≈ 136 µM) |
| CC(=O)OCCN(C)c1cc(SC(C)C)c2nonc2c1[N+](=O)[O-] | 51.2 µg/mL (≈ 144 µM) |
| C=CCOc1ccc(/C=C/C(=O)OCC(=O)N2CCN(C(C)=O)CC2)cc1 | > 55.9 µg/mL |
| Cc1cccc(C(=O)NCCCNC(=O)c2ccc(C)nc2)c1 | 44.1 µg/mL (≈ 142 µM) |
| CN=C1S/C(=C\c2ccc(O)c(OC)c2)C(=O)N1C | 5.9 µg/mL (≈ 21.2 µM) |
| CCC(=O)c1cn(CC(=O)Nc2ccc(C)cc2C)c2ccccc12 | < 0.4 µg/mL |
| CN(C)S(=O)(=O)c1ccc(C(=O)OCC2CCCO2)cc1 (stereo not given) | > 47 µg/mL |
| CCOc1ccccc1NC(=S)NCCc1ccc(F)cc1 | 25.4 µg/mL (≈ 79.8 µM) |
| O=S(=O)(c1ccc(-c2ccccc2)cc1)N1CCCCC1 | < 0.6 µg/mL |
| O=C(NCCOc1ccccc1)c1ccccc1[N+](=O)[O-] | > 42.9 µg/mL |
| Cc1[nH]c2ccccc2c1C(=O)CSC(=S)N1CCOCC1 | 2.4 µg/mL (≈ 7.18 µM) |
| N/C(CN1CCSCC1)=N\OCc1c(F)cccc1Cl | 40.4 µg/mL (≈ 127 µM) |
| N/C(=N\OC(=O)c1cccs1)C1(c2ccc(Cl)cc2Cl)CC1 | 12.3 µg/mL (≈ 34.6 µM) |

| SMILES | solubility kinetic |
| --- | --- |
| CC(=O)Nc1cccc(C(=O)OC(C)C(=O)N2CCc3ccccc32)c1 (stereo not given) | 1.3 µg/mL (≈ 3.69 µM) |
| CC(NC(=O)Nc1ccc(F)cc1)c1ccc2c(c1)OCO2 (stereo not given) | 3.4 µg/mL (≈ 11.2 µM) |
| Cc1[nH]c2ccccc2c1C(=O)C(C)OC(=O)C1CCC1 (stereo not given) | > 42.8 µg/mL |
| COc1ccc(NC(=O)COC(=O)C2=COCCO2)cc1OC | > 48.5 µg/mL |
| Cc1ccnc(NC(=O)COC(=O)c2ccc(F)cc2F)n1 | > 46.1 µg/mL |
| COc1ccc(OCC(=O)O/N=C(\N)c2ccc(OC)cc2)cc1 | 1.2 µg/mL (≈ 3.63 µM) |
| O=C(Nc1ccc(NC(=O)c2ccccc2Cl)nc1)c1ccco1 | 10.2 µg/mL (≈ 29.8 µM) |
| CN1CCN(S(=O)(=O)c2cccc3nsnc23)CC1 | > 44.8 µg/mL |
| O=C1OC(c2ccc(Br)cc2)=N/C1=C\c1ccco1 | 2.4 µg/mL (≈ 7.54 µM) |
| Cc1cc(C(=O)N2CCOCC2)c(C)o1 | > 31.4 µg/mL |
| Cc1nc(N2CCN(Cc3ccc4c(c3)OCO4)CC2)[nH]c(=O)c1C | > 51.4 µg/mL |
| Cc1cc(Oc2ccc(OCC(N)=O)nn2)nc(Cl)n1 | > 44.4 µg/mL |
| CCOc1ccc(N2C(=O)CC(Cc3cc(C)cc(C)c3)C2=O)cc1 (stereo not given) | 4 µg/mL (≈ 11.9 µM) |
| CCN(C(=O)Cc1c(C(=O)O)[nH]c2ccccc12)c1ccc(OC)cc1 | > 52.9 µg/mL |
| CN(Cc1ccccc1Cl)C(=O)CNC(=O)C12CC3CC(CC(C3)C1)C2 | > 56.2 µg/mL |
| Cc1ccccc1CN(c1ccc(C(=O)N2CCN(C)CC2)cc1)S(C)(=O)=O | > 60.2 µg/mL |
| Cc1cc(NC(=O)C2CC(=O)N(c3cccc(C)c3C)C2)no1 (stereo not given) | > 47 µg/mL |
| Cc1ccc([N+](=O)[O-])cc1NC(=O)C(C)N1CCCCC1 (stereo not given) | 40.4 µg/mL (≈ 139 µM) |
| CC12CN3CCN(CC(C3)/C1=N\NC(=O)Nc1cccc(Cl)c1)C2 | > 52.2 µg/mL |
| CC(Sc1nc2c(c(=O)[nH]1)CCCC2)C(=O)Nc1ccccc1C#N (stereo not given) | 46.1 µg/mL (≈ 130 µM) |
| O=c1onc(-c2ccccc2)c2ccccc12 | 27.7 µg/mL (≈ 124 µM) |
| CCCCOC(=O)c1ccc(NC(=O)C(=O)NCCN(CC)CC)cc1 | 44.3 µg/mL (≈ 122 µM) |
| CCc1c(C)nc(N)nc1N1N=C1SCCOc1ccccc1 | > 49.4 µg/mL |
| COc1cccc(C(=O)c2c[nH]c(C(=O)NCCCN(C)C)c2)c1 | > 49.4 µg/mL |

| SMILES | solubility kinetic |
| --- | --- |
| O=C(Cn1cnc([N+](=O)[O-])c1)Nc1ccc(F)c(Cl)c1 | 5 µg/mL (≈ 16.7 µM) |
| O=[N+]([O-])c1cccc2cn[nH]c12 | > 24.5 µg/mL |
| Cc1ccsc1CNC1C2CC3CC(C2)CC1C3.Cl (stereo not given) | 39.9 µg/mL |
| COc1ccc(Oc2cccc(Cl)c2CNC(=O)CSCC(=O)O)cc1 | > 59.4 µg/mL |
| CN(Cc1ccccc1)C(=O)COC(=O)CCC(=O)c1ccc(F)cc1 | 14.8 µg/mL (≈ 41.4 µM) |
| O=C1N(Cc2ccccc2)c2ccccc2C12OCCO2 | 28.9 µg/mL (≈ 103 µM) |
| CCc1ccc(NC(=O)COC(=O)/C=C/c2ccco2)cc1 | 4.8 µg/mL (≈ 16 µM) |
| COc1ccc(/C=C/C(=O)NCCCN2CCCC2)cc1 | > 43.3 µg/mL |
| O=C(c1cc(-c2ccc(Cl)cc2Cl)on1)N1CCCCCC1 | 4.1 µg/mL (≈ 12.1 µM) |
| Cc1ccc(-n2c(O)c(C=NCc3ccccn3)c(=O)[nH]c2=S)cc1 | 29.6 µg/mL (≈ 84 µM) |
| CCOc1ccccc1Nc1ccc(C(=O)O)cc1[N+](=O)[O-] | 40.8 µg/mL (≈ 135 µM) |
| Cn1c(Cl)c(/C=N/OC(=O)C(C)(C)C)c2ccccc21 | 0.7 µg/mL (≈ 2.39 µM) |
| COc1ccccc1Nc1nc(C)nc2c1oc1ccccc12.Cl | 0.5 µg/mL |
| COc1ccccc1C(C)NC(=O)Cc1ccsc1 (stereo not given) | > 41.3 µg/mL |
| CC(=O)Nc1cccc2c1Cc1ccccc1-2 | 11.7 µg/mL (≈ 52.4 µM) |
| Cc1oncc1C(=O)Nc1ccc2ccccc2c1 | 9.8 µg/mL (≈ 38.8 µM) |
| Cc1ccc(NC(=O)C[n+]2cc(-c3ccccc3)n3c2CCC3)c(C)c1.[Cl-] | 55.4 µg/mL |
| C1CN(CCN2CCOCC2)CCN1 | 22.7 µg/mL (≈ 114 µM) |
| COc1cc(CNCCc2ccc3c(c2)OCO3)ccc1O.Cl | > 50.7 µg/mL |
| COc1ccccc1C1CCN(Cc2cccc3ccccc23)CC1 | < 0.7 µg/mL |
| C=CCNC(=O)c1cnn(-c2ccccc2)c1-c1ccccc1 | > 45.5 µg/mL |
| CCN(Cc1ccncc1)C(=O)c1ccco1 | 29.4 µg/mL (≈ 128 µM) |
| COc1ccc(/C=N/OCC(=O)N2CCCC2)c(OC)c1 | > 43.9 µg/mL |
| O=C(Nc1ccc(Cl)cc1Cl)c1csc(-c2cccnc2)n1 | 1.6 µg/mL (≈ 4.57 µM) |

| SMILES | solubility kinetic |
| --- | --- |
| COc1ccc(NC(=O)C2=CC=CN3CCS(=O)(=O)N=C23)c(OC)c1 | 13.8 µg/mL (≈ 38 µM) |
| Cc1ccccc1OCC(=O)O/N=C(\N)c1ccncc1 | 28.7 µg/mL (≈ 101 µM) |
| CCc1ccc(C(CC(=O)O)N2Cc3ccccc3C2=O)cc1 (stereo not given) | > 46.4 µg/mL |
| O=C(O)CN(C1CCCCC1)S(=O)(=O)c1ccc(F)cc1 | > 47.3 µg/mL |
| Brc1ccccc1OCCCOc1cccc2cccnc12 | 1.5 µg/mL (≈ 4.19 µM) |
| COc1ccccc1C(=O)Nc1ccccc1C(=O)Nc1ccccc1 | < 0.4 µg/mL |
| CC(C)(CN=C1NS(=O)(=O)c2ccccc21)CNC(=O)c1ccccc1 | > 55.7 µg/mL |
| O=C(Nc1nc(-c2ccccc2)cs1)c1ccccc1F | 0.4 µg/mL (≈ 1.34 µM) |
| Clc1cccc(CN2CCCCCC2)c1Cl | 4.8 µg/mL (≈ 18.6 µM) |
| Cn1c(O)c(C=NCCN2CCOCC2)c(=O)[nH]c1=S | > 44.8 µg/mL |
| O=C(Nc1ccccc1)c1ccc2c(c1)OCCCO2 | > 40.4 µg/mL |
| Cc1ccccc1-c1noc(CCC(=O)NCc2ccco2)n1 | 42.1 µg/mL (≈ 135 µM) |
| Cc1ccc2c(c1)C(O)(CC(=O)c1cccc(-n3cccc3)c1)C(=O)N2 (stereo not given) | 7.2 µg/mL (≈ 20.8 µM) |
| O=[N+]([O-])c1ccc(CSC2=NCCS2)cc1 | 16.1 µg/mL (≈ 63.3 µM) |
| CCC1(C)Cc2ccccc2-c2nc(SC)[nH]c(=O)c21 (stereo not given) | < 0.3 µg/mL |
| CCOP(=O)(OCC)C(Cc1ccccc1)NC(C)=O (stereo not given) | 43.5 µg/mL (≈ 145 µM) |
| COc1cc(-c2nnc(SCc3cc(=O)oc4cc(O)c(O)cc34)o2)cc(OC)c1OC | > 68.8 µg/mL |
| NC(=O)C1=CN(Cc2ccc(Cl)cc2)CCC1C(F)(F)F (stereo not given) | > 47.8 µg/mL |
| O=C(Nc1ccc(F)cc1F)NC1CCN(Cc2c(F)cccc2Cl)CC1 | 5 µg/mL (≈ 12.6 µM) |
| COc1ccc(/C(N)=N/OC(=O)c2cccs2)cc1 | 35.9 µg/mL (≈ 130 µM) |
| Cc1csc(NC(=O)c2ccc(C)s2)n1 | 25.9 µg/mL (≈ 109 µM) |
| Cc1ccc(-c2csc(NC(=O)Cc3ccc(F)cc3)n2)o1 | 12.5 µg/mL (≈ 39.5 µM) |
| O=C(CSc1nc2ccccc2o1)N1CCOCC1 | > 41.7 µg/mL |
| CCC(CC)C(=O)c1c[nH]c(C(=O)NCc2cccs2)c1 | 4.4 µg/mL (≈ 14.5 µM) |
